This note sets out measurements from patent US20260374739A1, “SMALL MOLECULAR WEIGHT CHEMICAL COMPOUND TO ANTAGONIZE EPH-EPHRIN TETRAMERIZATION AND INHIBIT BIDIRECTIONAL SIGNALING” (THE BOARD OF REGENTS OF THE UNIVERSITY OF TEXAS SYSTEM, priority 2022, published 2026).

Entries after “also recorded” stand apart in the source; their conditions may differ.

The target of one data set is EphrinB3-EphB1 (Homo sapiens, UniProt P54762). Put plainly: Octet, immobilized human EphrinB3 binding to human EphB1. As for the experimental part:
Studies were conducted to confirm that A20 chemicals can effectively target the human Eph/Ephrin proteins. Octet system was used to first characterize the biophysical interactions of the human B class Eph and Ephrin proteins, and then was tested to assess how A20 may disrupt the interactions. Since the human and rodent proteins are highly conserved, and essentially identical, with EphB2 sharing 99.5% identity between human and mouse, with only 5 of ~1,000 amino acids different, any species-specific differences were not anticipated. Therefore, commercially available human EphrinB1-Fc (EB1), EphrinB2-Fc (EB2), and EphrinB3-Fc (EB3) ectodomain proteins were sparsely immobilized onto biosensors and then exposed to 50 nM of soluble human EphB1-His, EphB2-His, and EphB4-His ectodomains for 800 sec association and 1,000 sec dissociation steps with a total of nine different interactions analyzed. In the absence of A20 chemical, the immobilized human EphrinB proteins bound to their appropriate human EphB target proteins; with EphrinB1 only bound EphB1 and EphB2, EphrinB2 bound all three EphB1, EphB2, and EphB4, and EphrinB3 only bound EphB1 and EphB2 (FIG. 19A-19B).
Addition of compound also altered dissociation kinetics. […] This is referred to as the “unsurmountable” component of the Eph-Ephrin interaction (FIG. 21C). Additionally, AUC data was graphed for these runs (FIG. 21D). […]
(In general: In BLI a coated tip is dipped into the sample, and binding shifts an interference pattern.)

Another data set concerns the target T1, EphB1-Fc / EB2-His (Rattus norvegicus, UniProt P09759).
T1 construct: mouse (Mus musculus) EB2-His ectodomain, pulldown
In words: pulldown EB2-His to EphB1-Fc. Format: binding, mouse EB2. To be noted: 50 and 250 μM for A20; listed as A20. The text has this: A20, E13, and other compounds from the top 32 hits were then characterized in pulldown assays. EphB1-Fc was immobilized onto Protein A agarose beads, then mixed with compounds and the soluble EB2-His ectodomain for 1 hr at RT, after which protein complexes were washed and then bound EB2 was detected by immunoblot using anti-His antibodies.

Data set [1] in a line: oral bioavailability, IV 3 mg/kg vs PO 30 mg/kg. To be noted: PBS. Format: in vivo, mouse. As for the experimental part:
A20.2×HCl compound was provided to the UT Southwestern PK Core facility and tested for bioavailability after a single dose when either injected intravenous (IV) at 3 mg/kg or provided by oral gavage (PO) at 30 mg/kg using PBS as vehicle. The data on oral gavage is quite impressive and indicates significant levels of A20 persist, especially in the liver, after a single dose.
To examine the drug-like nature of the disclosed compounds, tests for solubility was conducted.

Sequence of EphrinB3-EphB1 (P54762 18-540 limits assumed): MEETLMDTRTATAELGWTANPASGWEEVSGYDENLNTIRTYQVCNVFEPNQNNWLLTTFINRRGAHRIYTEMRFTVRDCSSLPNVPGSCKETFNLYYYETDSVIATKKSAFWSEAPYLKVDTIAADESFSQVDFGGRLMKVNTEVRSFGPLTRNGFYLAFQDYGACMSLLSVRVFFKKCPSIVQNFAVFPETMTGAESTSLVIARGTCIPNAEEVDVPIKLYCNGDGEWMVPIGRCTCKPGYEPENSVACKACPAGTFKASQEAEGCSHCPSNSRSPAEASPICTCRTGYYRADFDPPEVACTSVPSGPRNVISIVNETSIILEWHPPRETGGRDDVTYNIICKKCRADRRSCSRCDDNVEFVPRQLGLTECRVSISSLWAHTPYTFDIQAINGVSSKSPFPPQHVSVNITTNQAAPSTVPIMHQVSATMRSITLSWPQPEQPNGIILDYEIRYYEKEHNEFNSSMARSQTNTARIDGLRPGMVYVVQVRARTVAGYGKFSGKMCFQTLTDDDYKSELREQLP
T1 sequence (P09759 18-538): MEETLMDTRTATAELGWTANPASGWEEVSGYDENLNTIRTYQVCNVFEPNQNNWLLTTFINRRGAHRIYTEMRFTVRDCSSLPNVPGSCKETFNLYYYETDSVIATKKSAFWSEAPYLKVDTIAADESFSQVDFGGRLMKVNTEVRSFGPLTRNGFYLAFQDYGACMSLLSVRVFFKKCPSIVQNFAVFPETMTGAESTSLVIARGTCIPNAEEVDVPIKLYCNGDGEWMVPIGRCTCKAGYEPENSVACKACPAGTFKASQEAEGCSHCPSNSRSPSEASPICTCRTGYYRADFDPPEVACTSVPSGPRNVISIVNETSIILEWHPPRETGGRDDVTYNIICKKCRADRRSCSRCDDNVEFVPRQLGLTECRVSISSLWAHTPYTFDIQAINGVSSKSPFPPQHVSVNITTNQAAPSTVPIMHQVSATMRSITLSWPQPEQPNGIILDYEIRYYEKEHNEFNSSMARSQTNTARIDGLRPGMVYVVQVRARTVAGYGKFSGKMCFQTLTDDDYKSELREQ

On to `Oc1c(Br)cc(CN2CCOCC2)c2cccnc12` [Compound 5, 7-bromo-5-(morpholinomethyl)quinolin-8-ol], for which the “reduction of tetramer formation” value at EphrinB3-EphB1 (EB3-EphB1, A20) worked out at 40%. Besides, the IC (maximum) on EphrinB3-EphB1 (read-out: concentration producing maximum inhibition) amounted to 10 µM. Moreover, the “pulldown EB2-His binding to EphB1-Fc” value at EphB1-Fc / EB2-His was “strongly reduced EB2-His binding to EphB1-Fc; also recorded: reduces the ability of soluble EB2-His to bind to immobilized EphB1-Fc”.
For `Oc1c(Br)cc(CN2CCOCC2)c2cccnc12` [Compound 6, 4-((7-bromo-8-hydroxyquinolin-1-ium-5-yl)methyl)morpholin-4-ium chloride], in data set [1], the “oral bioavailability” value was “orally bioavailable”.
